Measured values reported in ChEMBL document CHEMBL1201862, “PubChem BioAssay data set” (2004).
Active and inactive are the calls of the source.

Experiments:
Type in all cases: functional
[1] = Luminescent dose response cell-based high throughput screening assay for inhibitors of the Janus kinase 2 mutant JAK2V617F. [Related pubchem assays: 1446 (Primary screen.), 1521 (Confirmation assay.), 1486 (Counter screen.)]
[2] = growth suppression of beta-catenin-knockout colon cells, dose response, cell-based, HCT116, human colon tumor (AID 1045);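 note: HCT116 colon tumor cells with beta catenin knocked out; cells exposed to compound for 60 hours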
Caspase-3 = molecular target: T1, Caspase-3 (Homo sapiens, UniProt P42574);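 note: Dose-response selectivity test against caspase-3 for candidate inhibitors of sentrin-specific proteases (SENPs)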
T1 sequence (P42574 whole entry): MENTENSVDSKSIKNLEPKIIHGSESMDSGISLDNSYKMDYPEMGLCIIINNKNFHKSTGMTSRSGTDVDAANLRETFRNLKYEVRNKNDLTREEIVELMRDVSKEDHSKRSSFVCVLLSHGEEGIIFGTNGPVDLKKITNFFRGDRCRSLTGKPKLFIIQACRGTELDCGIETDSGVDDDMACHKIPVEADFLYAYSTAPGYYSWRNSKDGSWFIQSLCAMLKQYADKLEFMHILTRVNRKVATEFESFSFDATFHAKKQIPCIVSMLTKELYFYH

Protein RecA = molecular target: T2, Protein RecA (Mycobacterium tuberculosis, UniProt P9WHJ3); assay: Fluorescence Cell-Free Homogeneous Dose Retest to Identify Inhibitors of RecA-Intein Splicing Activity. [Related pubchem assays (depositor defined):AID2097, AID2223, AID489010, AID492950]
T2 sequence (P9WHJ3 whole entry): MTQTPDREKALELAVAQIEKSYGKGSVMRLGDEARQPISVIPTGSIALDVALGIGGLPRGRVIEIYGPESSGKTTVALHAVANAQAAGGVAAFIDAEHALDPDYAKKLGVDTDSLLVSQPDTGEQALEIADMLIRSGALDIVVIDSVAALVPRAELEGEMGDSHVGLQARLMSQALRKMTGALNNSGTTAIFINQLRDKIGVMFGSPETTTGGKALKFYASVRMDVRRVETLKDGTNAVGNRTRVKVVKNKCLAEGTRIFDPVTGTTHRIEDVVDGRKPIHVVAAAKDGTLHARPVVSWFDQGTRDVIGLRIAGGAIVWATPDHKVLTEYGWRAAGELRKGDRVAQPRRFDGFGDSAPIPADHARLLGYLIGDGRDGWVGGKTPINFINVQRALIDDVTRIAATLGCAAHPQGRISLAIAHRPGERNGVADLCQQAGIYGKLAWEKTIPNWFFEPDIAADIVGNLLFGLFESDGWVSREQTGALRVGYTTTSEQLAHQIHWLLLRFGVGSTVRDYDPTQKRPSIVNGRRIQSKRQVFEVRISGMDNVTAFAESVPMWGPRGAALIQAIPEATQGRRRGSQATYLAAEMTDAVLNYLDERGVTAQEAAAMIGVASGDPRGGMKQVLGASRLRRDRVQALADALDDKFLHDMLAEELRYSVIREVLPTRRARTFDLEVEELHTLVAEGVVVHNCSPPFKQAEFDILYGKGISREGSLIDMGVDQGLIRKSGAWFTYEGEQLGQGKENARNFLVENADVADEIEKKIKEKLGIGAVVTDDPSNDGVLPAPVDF

[3] = cytotoxicity in KRAS-transformed pancreatic duct cells, primary screen, cell-based, fluorescence, HTS (AID 431); conditions: Homo sapiens;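 note: cell line used: HPDE-C7K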
[4] = molecular target: T3, Tyrosine-protein phosphatase non-receptor type 22 (Homo sapiens, UniProt Q9Y2R2); assay: SAR LYP1 Fluorescent Assay using OMFP substrate for In Vitro dose response studies - Set 3. [Related pubchem assays (depositor defined):AID1779, AID1784, AID2140, AID2686]
T3 sequence (Q9Y2R2 whole entry): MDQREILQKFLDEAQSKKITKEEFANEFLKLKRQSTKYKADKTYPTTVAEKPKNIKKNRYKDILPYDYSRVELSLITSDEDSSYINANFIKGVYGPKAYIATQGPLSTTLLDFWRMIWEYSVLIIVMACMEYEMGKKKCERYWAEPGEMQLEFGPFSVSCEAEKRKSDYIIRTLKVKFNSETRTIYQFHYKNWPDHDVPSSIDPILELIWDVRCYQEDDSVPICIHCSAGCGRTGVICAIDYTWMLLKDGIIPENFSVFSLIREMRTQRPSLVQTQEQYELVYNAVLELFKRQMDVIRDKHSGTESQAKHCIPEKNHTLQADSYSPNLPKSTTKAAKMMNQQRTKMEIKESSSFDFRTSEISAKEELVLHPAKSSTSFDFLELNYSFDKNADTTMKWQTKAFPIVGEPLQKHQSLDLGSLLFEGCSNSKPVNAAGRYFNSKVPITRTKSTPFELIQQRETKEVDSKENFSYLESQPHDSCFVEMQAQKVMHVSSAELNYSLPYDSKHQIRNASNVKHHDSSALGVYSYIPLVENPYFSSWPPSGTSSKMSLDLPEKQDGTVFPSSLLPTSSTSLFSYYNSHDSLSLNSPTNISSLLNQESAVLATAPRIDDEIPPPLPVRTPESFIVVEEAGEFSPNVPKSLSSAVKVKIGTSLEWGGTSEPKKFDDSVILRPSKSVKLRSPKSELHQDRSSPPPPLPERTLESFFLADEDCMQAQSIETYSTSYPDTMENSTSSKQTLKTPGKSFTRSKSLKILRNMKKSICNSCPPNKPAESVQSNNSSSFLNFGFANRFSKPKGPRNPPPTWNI

[5] = molecular target: T4, Tyrosine-protein phosphatase non-receptor type 7 (Homo sapiens, UniProt P35236); assay: HTS HePTP Fluorescent Assay using OMFP substrate for In Vitro dose response studies. [Related pubchem assays (depositor defined):AID1059, AID1077, AID1784, AID2068, AID2085, AID435032, AID521]
T4 sequence (P35236 whole entry): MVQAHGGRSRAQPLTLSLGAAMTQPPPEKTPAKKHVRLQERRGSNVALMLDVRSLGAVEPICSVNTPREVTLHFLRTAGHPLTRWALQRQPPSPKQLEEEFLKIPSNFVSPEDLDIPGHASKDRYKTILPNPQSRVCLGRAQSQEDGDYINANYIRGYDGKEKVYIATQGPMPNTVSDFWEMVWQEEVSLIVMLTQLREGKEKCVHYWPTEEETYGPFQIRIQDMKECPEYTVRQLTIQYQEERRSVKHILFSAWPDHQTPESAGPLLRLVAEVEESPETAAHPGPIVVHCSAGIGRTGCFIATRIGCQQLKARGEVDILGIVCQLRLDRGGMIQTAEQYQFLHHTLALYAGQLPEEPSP

[6] = molecular target: T4, Tyrosine-protein phosphatase non-receptor type 7; assay: HePTP (PTPN7) phosphatase inhibitor potency, SAR follow-up, biochemical, set 2 (AID 449736)

COc1ccc(Nc2ccc3c(c2)=NC2(CCCCC2)[N+]=3[O-])cc1
active: IC50 [1] 0.824 µM | EC50 [2] 1.89 µM | IC50 (Caspase-3) 88.4 µM | EC50 (Protein RecA) 4.39 µM | EC50 [3] 8.16 µM

COc1ccc(/C=C2\SC(=S)N(CCC(=O)Nc3ccc(C(=O)O)cc3)C2=O)cc1OC
active: IC50 [4] 4.09 µM | IC50 [5] 5.64 µM | IC50 [6] 0.312 µM
